Tests used:
human whole blood [1] = assay: Whole blood cell model: LPS stimulation, cytokine measurement; type: cell-based; conditions: + CytoSorb
Procedure: (§5) Subsequently, the blood was split into two experimental groups: one was treated with CytoSorb in a batch setup, and the other served as an untreated control, incubated under identical conditions at 37 °C on a roller mixer. Following treatment, all samples were allowed to rest for 4 h. After the resting period, blood samples were stimulated with either lipopolysaccharide (LPS) E. coli or with anti-CD3 antibodies. […] The stimulation was carried out for 4 h at 37 °C on a roller mixer. Thereafter, the blood samples were centrifuged, and the plasma was collected and stored at −80 °C. Leukocyte activation was assessed by quantification of IL-1β, IL-6, IL-8, and TNF-α.

human whole blood [2] = assay: Whole blood cell model: anti-CD3 stimulation, cytokine measurement; type: cell-based; conditions: + Anti-CD3, + CytoSorb
Procedure: as §5

[3] = Whole blood cell model: immunosuppressant serum levels after CytoSorb treatment; type: in vitro ADME, human; conditions: overnight incubation, p < 0.05, n = 6
Procedure: To investigate whether the in vitro depletion of immunosuppressants by CytoSorb affects immunosuppression, a whole blood cell model was established. The experiment was conducted over two consecutive days. A graphical overview of the setup is provided in Supplementary Figure S1. On day one, freshly drawn human whole blood was incubated overnight at 37 °C with various immunosuppressants, either individually or in combination, to allow for sufficient drug exposure prior to CytoSorb treatment.
Subsequently, the blood was split into two experimental groups: one was treated with CytoSorb in a batch setup, and the other served as an untreated control, incubated under identical conditions at 37 °C on a roller mixer. Following treatment, all samples were allowed to rest for 4 h. After the resting period, blood samples were stimulated with either lipopolysaccharide (LPS) E. coli or with anti-CD3 antibodies. LPS primarily activates monocytes and neutrophils via the TLR4/CD14/MD2 complex, while anti-CD3 specifically stimulates T cells. The stimulation was carried out for 4 h at 37 °C on a roller mixer. Thereafter, the blood samples were centrifuged, and the plasma was collected and stored at −80 °C. Leukocyte activation was assessed by quantification of IL-1β, IL-6, IL-8, and TNF-α.
(§1) MPA was determined using a validated test for the Cobas c311 autoanalyzer from Roche (Basel, Switzerland). 6-MP was quantified by reversed-phase HPLC [17, 18]. After precipitation of the plasma sample with ice cold methanol in ratio 1:5, 30 µL of the supernatant was injected into a Nukleosil 100-5C18, 4.6 × 150 mm C18 column (Macherey-Nagel, Düren, Germany), combined with an Onyx Monolithic C18, 4.6 × 5 mm guard column (Phenomenex, Torrance, CA, USA). The mobile phase consisted of methanol and deionised water (50:50) which was continuously pumped with a flow rate of 0.8 mL/min for five minutes. 6-MP was quantified with a retention time of 2.3 min using an UV detector (325 nm). The quantification of cytokines was determined by Magnetic Luminex Assay with a human premixed Multi Analyte Kit (R&D Systems, Minneapolis, MN, USA). The urea, albumin and total protein levels were measured with the cobas c311 automated analyzer with corresponding test kits from Roche (Penzberg, Germany).

[4] = Dynamic CytoSorb adsorption setup (scaled-down circuit, whole blood); type: in vitro ADME, human; conditions: for mean clearance rate: CytoSorb treatment, at 15 min, Equation (2); for adsorption (removal) by CytoSorb: dynamic ex vivo circuit, 400 mL human whole blood, 30 mL cartridge, 4 h
Procedure: To quantify the depletion of selected immunosuppressants during CytoSorb treatment under dynamic conditions, a scaled-down extracorporeal circulation system was established, consisting of a 30 mL CytoSorb adsorption cartridge and a pediatric tubing set filled with 400 mL of freshly drawn human whole blood (Figure 1b). To distinguish between drug removal by adsorption versus uptake by blood components, a control circuit with an identical setup but an empty cartridge was run in parallel for each experiment. Whole blood from two healthy donors of the same blood group was pooled, anticoagulated with citrate (final concentration: 7 mM), spiked with the immunosuppressants, and divided into two 400 mL blood bags.
Prior to circulation, the entire system was flushed with isotonic saline. Then, one of the prepared blood bags (Group 1 or Group 2) was connected to the circuit and circulated for 30 min at 37 °C without the adsorber cartridge to allow for equilibration. Following this equilibration, a baseline sample (0 min) was collected, and the adsorption column was introduced into the circuit. In the adsorption circuit, samples were collected at 15, 30, 60, 120, 180 and 240 min. In the control circuit, samples were taken at baseline and after 240 min. All blood samples were centrifuged (3500× g, 10 min) to separate plasma, which was stored at −80 °C until further analysis.
(§2) The clearance (C) of each compound during both the dialysis and the dynamic CytoSorb experiments was calculated using the first-order exponential decay formula:(2) C = V/t ×lnCo/Ct where V = plasma volume, t = treatment time [min], C0 = concentration before starting treatment, Ct = concentration at time t.
as §1

[5] = literature; ref 21 (6-MP), 22 (CsA), 23 (MPR), 24 (MPA), 25 (TAC); cited from earlier work
[6] = design: method as in earlier work; conditions: literature; ref 23 (methylprednisolone), 24 (mycophenolate), 41 (6-mercaptopurine); cited from earlier work
[7] = Removal of immunosuppressants by chronic dialysis (ex vivo, plasma); type: in vitro ADME, human
Procedure: (§3) To evaluate the effect of dialysis under clinically relevant conditions, both chronic and acute dialysis settings were simulated using standard Fresenius systems. In all experiments, 1.5 L of citrated human plasma was dialyzed against calcium-free dialysate at 37 °C.
(§4) Prior to circulation, the systems were flushed with 2 L of isotonic saline. Plasma samples were collected at defined time points (15–480 min) and analyzed for immunosuppressants, urea, and albumin. Chronic dialysis represents intermittent high-flow conditions, whereas acute dialysis mimics continuous low-flow therapy used in critically ill patients.
as §2

[8] = Determination of protein binding by ultrafiltration; type: in vitro ADME; conditions: human plasma, ultrafiltration 30 kDa cutoff
Procedure: To assess protein binding of the tested immunosuppressants, human plasma was spiked with the respective drugs and urea as a freely diffusible control. Samples were then subjected to ultrafiltration (30 kDa cutoff, 15,000× g, 20 min). The protein-bound fraction was calculated using the following formula:(1) protein binding %= 1−Cfiltrate/Cplasma where cplasma is the concentration of each compound in plasma and cfiltrate is its concentration in the ultrafiltrate.

[9] = Static CytoSorb adsorption setup (spiked plasma with CytoSorb resin); type: in vitro ADME, human; conditions: plasma:resin 1:10 v/v, 60 min, 37 °C, n = 3
Procedure: Plasma was obtained by centrifugation (3500× g, 10 min) from citrate-anticoagulated human whole blood and spiked with immunosuppressants to defined target concentrations (Table 1). To evaluate adsorption, plasma was incubated with the CytoSorb resin at 1:10 (v/v) for 60 min at 37 °C on a roller mixer. In parallel, a separate aliquot of spiked plasma was incubated with autologous blood cells (1:1, v/v) to assess cellular uptake of immunosuppressants. Untreated spiked plasma served as control (Figure 1a). Samples were collected before and after incubation for subsequent analysis.
as §1

[10] = Removal of immunosuppressants by acute dialysis (CVVHD, ex vivo, plasma); type: in vitro ADME, human
Procedure: as §3, §4, §2

Compound	IL-1β serum level (human whole blood [1]; test 1)	IL-6 serum level (human whole blood [1]; test 1)	IL-8 serum level (human whole blood [1]; test 1)	TNF-α serum level (human whole blood [1]; test 1)	IL-1β serum level (human whole blood [1]; test 2)	IL-6 serum level (human whole blood [1]; test 2)	IL-8 serum level (human whole blood [1]; test 2)	TNF-α serum level (human whole blood [1]; test 2)	IL-1β serum level (human whole blood [1]; test 3)	IL-6 serum level (human whole blood [1]; test 3)	IL-8 serum level (human whole blood [1]; test 3)	TNF-α serum level (human whole blood [1]; test 3)	IL-1β serum level (human whole blood [2]; test 1)	IL-6 serum level (human whole blood [2]; test 1)	IL-8 serum level (human whole blood [2]; test 1)	TNF-α serum level (human whole blood [2]; test 1)	IL-1β serum level (human whole blood [2]; test 2)	IL-6 serum level (human whole blood [2]; test 2)	IL-8 serum level (human whole blood [2]; test 2)	TNF-α serum level (human whole blood [2]; test 2)	other results
COc1c(C)c2c(c(O)c1C/C=C(\C)CCC(=O)O)C(=O)OC2 [MPA, mycophenolic acid]	992 pg/mL	3303 pg/mL	4068 pg/mL	3390 pg/mL	112 pg/mL	627 pg/mL	2855 pg/mL	1274 pg/mL	1465 pg/mL	16855 pg/mL	15529 pg/mL	720 pg/mL	0 pg/mL	4 pg/mL	564 pg/mL	107 pg/mL	115 pg/mL	645 pg/mL	3704 pg/mL	109 pg/mL	IL-1β serum level (human whole blood [2]; test 3): 170 pg/mL; IL-6 serum level (human whole blood [2]; test 3): 952 pg/mL; IL-8 serum level (human whole blood [2]; test 3): 4924 pg/mL; TNF-α serum level (human whole blood [2]; test 3): 55 pg/mL; reduction in serum level following CytoSorb treatment (in words) [3]: significant reduction; mean clearance rate [4]: approximately 44 mL/min; adsorption (removal) by CytoSorb [4]: 76 ± 2%; Protein Binding in Plasma, Reference [5]: 97 [24] %; volume of distribution (Vd) [6]: ≈ 3.6 L/kg; removal by dialysis (in words) [7]: only slightly reduced; fraction unbound ([8]; read-out: Protein Binding in Plasma, Current Study (converted)): 0.021; reduction of level in plasma by CytoSorb [9]: 37 ± 6%
C=CC[C@@H]1/C=C(\C)C[C@H](C)C[C@H](OC)[C@H]2O[C@@](O)(C(=O)C(=O)N3CCCC[C@H]3C(=O)O[C@H](/C(C)=C/[C@@H]3CC[C@@H](O)[C@H](OC)C3)[C@H](C)[C@@H](O)CC1=O)[C@H](C)C[C@@H]2OC [TAC, tacrolimus]	412 pg/mL	7095 pg/mL	7756 pg/mL	1967 pg/mL	62 pg/mL	584 pg/mL	2388 pg/mL	1337 pg/mL	646 pg/mL	23302 pg/mL	50044 pg/mL	690 pg/mL	18 pg/mL	28 pg/mL	1654 pg/mL	38 pg/mL	93 pg/mL	773 pg/mL	8613 pg/mL	53 pg/mL	IL-1β serum level (human whole blood [2]; test 3): 268 pg/mL; IL-6 serum level (human whole blood [2]; test 3): 2598 pg/mL; IL-8 serum level (human whole blood [2]; test 3): 25920 pg/mL; TNF-α serum level (human whole blood [2]; test 3): 85 pg/mL; reduction in serum level following CytoSorb treatment (in words) [3]: no significant adsorption; mean clearance rate [4]: around 15 mL/min; reduction of serum levels by CytoSorb (abstract) ([4]; as stated in the abstract, experiment not specified): no significant effect; adsorption (removal) by CytoSorb [4]: 18 ± 16%; removal by dialysis (in words) [10]: not effectively removed; removal by dialysis (in words) [7]: not effectively removed; clearance ([7]; throughout): below 2 mL/min; Protein Binding in Plasma, Current Study [8]: 97.9 ± 10.9%; reduction of level in plasma by CytoSorb [9]: not affected

Reference: publication PMC12655457, “Does CytoSorb Interfere with Immunosuppression? A Pharmacokinetic and Functional Evaluation” (Pharmaceutics, 2025)
